Test results reported in publication PMC7054763, “Sulfonamide-Based Azaheterocyclic Schiff Base Derivatives as Potential Carbonic Anhydrase Inhibitors: Synthesis, Cytotoxicity, and Enzyme Inhibitory Kinetics” (BioMed Research International, 2020).
“Also recorded” adds a separate entry of the source.

What was measured:
[1] = molecular target: T1, carbonic anhydrase (Bos taurus, UniProt P00921); experiment: Carbonic anhydrase (CA) assay; type: biochemical; settings: bovine enzyme, p-nitrophenyl acetate substrate, pH 7.6, 25°C; for IC50: read-out: Carbonic anhydrase IC50 ± SEM
T1 construct: purchased Sigma-Aldrich
T1 sequence (P00921 whole entry): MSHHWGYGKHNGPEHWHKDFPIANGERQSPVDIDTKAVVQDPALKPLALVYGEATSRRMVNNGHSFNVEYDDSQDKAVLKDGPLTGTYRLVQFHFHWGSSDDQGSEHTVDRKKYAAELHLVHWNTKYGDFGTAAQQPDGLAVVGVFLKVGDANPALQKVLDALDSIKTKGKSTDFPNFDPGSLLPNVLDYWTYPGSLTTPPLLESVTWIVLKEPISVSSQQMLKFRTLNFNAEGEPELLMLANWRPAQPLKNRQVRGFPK

[2] = test system: human keratinocyte (HaCaT) cells; experiment: Cell viability assay (MTT) using HaCaT; type: cell-based
Procedure: (§1) The experiment for cell viability studies using MTT (3-(4,5-dimethylthiazol-2yl)-2,5-diphenyltetrazolium bromide) setup has been done to find cytotoxic effects of target compounds. The human keratinocyte (HaCaT) and MCF-7 were cultivated separately in 96-well plates (CGP, gamma sterilized, SPL Korea) with use of complete DMEM consisting of ten percent fetal bovine serum and one percent antibiotics. 5∗10^4 cells per well were incubated for 24 hours before their exposure to a series of dilutions of target derivatives. The analogue 3c was solubilized in DMSO, and DMEM was used for dilution to achieve final concentrations 0, 125, and 250 μM. Then, in the presence of test compounds, cells were incubated again for twenty-four hours at 37 C with 5% carbon dioxide. Now, through the MTT setup, absorbance values at 570 nm were determined by ELISA reader and each experiment was repeated thrice. All data was shown in a mean ± standard deviation pattern, and Student's t-tests were performed to analyze significance of the data. Statistical significance has been assumed (p < 0.005).

[3] = test system: MCF-7 cells; experiment: Cell viability assay (MTT) using MCF-7; type: cell-based, human; settings: MCF-7, 24 h, 0, 125 and 250 μM
Procedure: as §1

[4] = molecular target: T1, carbonic anhydrase; experiment: Kinetic analysis (Lineweaver-Burk) of carbonic anhydrase inhibition; type: biochemical, bovine
Procedure: CA inhibition has been determined using some reported methods with a few modifications. […] In brief, 120 microliters of 50 mM Tris-Sulfate buffer (with a pH 7.6 comprising 0.1 mM ZnCl2), twenty μL of (50 U) bovine enzyme, and 20 μL of inhibitor per well makes the reaction mixture. Mixture contents were mixed well before preincubation for ten minutes at 25°C. Para-nitrophenyl acetate substrate (6 mM stock solution by using <5% acetonitrile present in buffer and has been used fresh each time) and forty microliters were taken I each well to reach 0.6 mM concentration per well. The volume of the reaction mixture was diluted to 200 μL. Contents were well mixed after thirty-minute incubation at 25°C, and absorbance results were determined at 348 nm with a microplate reader (SpectraMax ABS, USA). Standard used was acetazolamide. Experiments were performed in triplicate with each concentration. GraphPad Prism 5.0 (GraphPad, San Diego, CA, USA) has been used to calculate IC50 by nonlinear regression. Inhibition (%) = [(B − S)/B] × 100, where S and B are the absorbances of the samples and blank.
To determine the kinetic parameters of compound 3c, a sequence of experiments have been done. Compound 3c was selected on the basis of IC50 value which was used at different concentrations (0.0, 7.1, 14.2, and 28.4 μM, respectively); the substrate (p-nitrophenyl acetate) concentrations were varied (2, 1, 0.5, 0.25, 0.125, and 0.0625 mM). Other all experimental conditions were just similar as described in the carbonic anhydrase assay segment. The maximum initial velocity has been measured using the starting linear part of absorbance values up to ten minutes at a 1-minute interval. Plots of Lineweaver–Burk on graph between inverse of velocities (1/V) and inverse of concentration of substrate 1/[S] mM^−1 were used in order to find enzyme inhibition type. EI dissociation constant Ki was found by the secondary plot of concentrations of inhibitors versus 1/V.

| SMILES | melting point [°C] | Carbonic anhydrase IC50 ± SEM [1] | IC50 [1] [µM] | other results |
| --- | --- | --- | --- | --- |
| O=S(=O)(N/N=C/c1cccnc1)c1ccccc1 [Compound 3a, (E)-N′-(pyridin-3-ylmethylene)benzenesulfonohydrazide] | 176 to 178 | No inhibition |  |  |
| Cc1cc(C)c(S(=O)(=O)N/N=C/c2cccnc2)c(C)c1 [Compound 3b, (E)-2,4,6-trimethyl-N′-(pyridin-3-ylmethylene)benzenesulfonohydrazide] | 173 to 176 | No inhibition |  |  |
| Cc1ccc(S(=O)(=O)N/N=C/c2cccnc2)cc1 [Compound 3c, (E)-4-methyl-N′-(pyridin-3-ylmethylene)benzenesulfonohydrazide] | 168 to 171 |  | 0.84 ± 0.12 | Cytotoxic effects, HaCaT compared with MCF-7 ([2]; HaCaT versus MCF-7, 250 μM): smaller in case of human keratinocyte (HaCaT) at concentration 250 μM than MCF-7; also recorded: less cytotoxic effects on human keratinocyte cell lines (HaCaT) compared to breast cancer cell lines MCF-7; Cytotoxicity (cell viability) ([2]; HaCaT, 24 h, 0, 125 and 250 μM): caused cytotoxicity in a concentration-dependent manner; Cytotoxicity (cell viability) [3]: caused cytotoxicity in a concentration-dependent manner; Vmax ([4]; 3c 7.1 μM): 0.01006 ΔA/min; Vmax ([4]; 3c 14.2 μM): 0.004552 ΔA/min; Vmax ([4]; 3c 28.4 μM): 0.002293 ΔA/min; Inhibition type ([4]; Lineweaver-Burk plots): noncompetitive mode of inhibition; also recorded: noncompetitively; Ki ([4]; secondary plot of Lineweaver-Burk slope versus 3c concentration, read-out: Ki (EI dissociation constant)): 8.6 µM |
| CC(=O)Nc1ccc(S(=O)(=O)N/N=C/c2cccnc2)cc1 [Compound 3d, (E)-N-(4-((2-(pyridin-3-ylmethylene)hydrazinyl)sulfonyl)phenyl)acetamide] | 181 to 184 | No inhibition |  |  |
| Cc1cc(C)c(S(=O)(=O)N/N=C/c2ccncc2)c(C)c1 [Compound 3e, (E)-2,4,6-trimethyl-N′-(pyridin-4-ylmethylene)benzenesulfonohydrazide] | 160 to 164 |  | 18.9 ± 0.85 |  |
| Cc1ccc(S(=O)(=O)N/N=C/c2ccncc2)cc1 [Compound 3f, (E)-4-methyl-N′-(pyridin-4-ylmethylene)benzenesulfonohydrazide] | 148 to 152 | No inhibition |  |  |
| Cc1ccc(S(=O)(=O)N/N=C/c2ccccn2)cc1 [Compound 3g, (E)-4-methyl-N′-(pyridin-2-ylmethylene)benzenesulfonohydrazide] | 159 to 161 |  | 59.1 ± 1.68 |  |
| O=S(=O)(N/N=C/c1ccc[nH]1)c1ccccc1 [Compound 3h, (E)-N′-((1H-pyrrol-2-yl)methylene)benzenesulfonohydrazide] | 156 to 158 |  | 31.8 ± 1.07 |  |
| Cc1ccc(S(=O)(=O)N/N=C/c2ccc[nH]2)cc1 [Compound 3i, (E)-N′-((1H-pyrrol-2-yl)methylene)-4-methylbenzenesulfonohydrazide] | 146 to 148 | No inhibition |  |  |
| COc1ccc(S(=O)(=O)N/N=C/c2cc[nH]c2)cc1 [Compound 3j, (E)-N′-((1H-pyrrol-3-yl)methylene)-4-methoxybenzenesulfonohydrazide] | 176 to 179 | No inhibition |  |  |
